Data: PubChem BioAssay AID248 (DTP/NCI, 2004)
Where “and” joins values, the source holds several entries; their conditions need not be identical. Equal entries are not always repeated. Toxic doses and inconclusive results are not listed. No stated cut-off is given here; in the data, active means T/C of 150% or more; inactive means T/C below 125%.

System: L1210 leukemia ip in BDF1 mice, survival T/C
Test: NCI In Vivo Anticancer Drug Screen. Data for tumor model L1210 Leukemia (intraperitoneal) in B6D2F1 (BDF1) mice
Conditions: endpoint: mean survival time, higher = longer survival
In short: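 Tumor was transplanted into mice, which were then dosed with test compound or vehicle alone. Survival was recorded for each group, and the treated figure was expressed relative to the control figure.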

[1] = dose: 100.0 mg/kg/injection, schedule: Q04DX003 (ip), vehicle: saline
[2] = dose: 75.0 mg/kg/injection, schedule: Q01DX001 (ip), vehicle: saline
[3] = dose: 100.0 mg/kg/injection, schedule: Q01DX009 (ip), vehicle: Klucel (hydroxypropylcellulose) (HPC)
[4] = dose: 100.0 mg/kg/injection, schedule: Q01DX001 (ip), vehicle: carboxymethylcellulose (CMC)
[5] = dose: 200.0 mg/kg/injection, schedule: Q01DX001 (ip), vehicle: carboxymethylcellulose (CMC)
[6] = dose: 400.0 mg/kg/injection, schedule: Q01DX001 (ip), vehicle: carboxymethylcellulose (CMC)
[7] = dose: 100.0 mg/kg/injection, schedule: Q01DX001 (ip), vehicle: saline
[8] = dose: 200.0 mg/kg/injection, schedule: Q01DX001 (ip), vehicle: saline
[9] = dose: 400.0 mg/kg/injection, schedule: Q01DX001 (ip), vehicle: saline
[10] = dose: 100.0 mg/kg/injection, schedule: Q04DX003 (ip), vehicle: Klucel (hydroxypropylcellulose) (HPC)
[11] = dose: 200.0 mg/kg/injection, schedule: Q01DX009 (ip), vehicle: Klucel (hydroxypropylcellulose) (HPC)
[12] = dose: 200.0 mg/kg/injection, schedule: Q04DX003 (ip), vehicle: Klucel (hydroxypropylcellulose) (HPC)
[13] = dose: 400.0 mg/kg/injection, schedule: Q01DX009 (ip), vehicle: Klucel (hydroxypropylcellulose) (HPC)
[14] = dose: 400.0 mg/kg/injection, schedule: Q04DX003 (ip), vehicle: Klucel (hydroxypropylcellulose) (HPC)

Measured: T/C

Cn1cnc2c([N+](C)(C)C)ncnc21
inactive: dose: 11.0 mg/kg/injection, schedule: Q04DX003 (ip), vehicle: saline 100 % of control | dose: 22.0 mg/kg/injection, schedule: Q04DX003 (ip), vehicle: saline 104 % of control | dose: 44.0 mg/kg/injection, schedule: Q04DX003 (ip), vehicle: saline 98 % of control | dose: 90.0 mg/kg/injection, schedule: Q04DX003 (ip), vehicle: saline 100 % of control | [1] 95 % of control and 101 % of control | dose: 200.0 mg/kg/injection, schedule: Q04DX003 (ip), vehicle: saline 104 % of control

CCC(=O)c1ccc2c(c1)N(CCCN1CCN(CCO)CC1)c1ccccc1S2
inactive: dose: 1.56 mg/kg/injection, schedule: Q03HX024 (ip), vehicle: saline 114 % of control | dose: 3.12 mg/kg/injection, schedule: Q03HX024 (ip), vehicle: saline 101 % of control | dose: 4.0 mg/kg/injection, schedule: Q01DX009 (ip), vehicle: saline 101 % of control | dose: 6.25 mg/kg/injection, schedule: Q01DX009 (ip), vehicle: saline 104 % of control | dose: 6.25 mg/kg/injection, schedule: Q03HX024 (ip), vehicle: saline 110 % of control | dose: 6.25 mg/kg/injection, schedule: Q04DX003 (ip), vehicle: saline 113 % of control | dose: 8.0 mg/kg/injection, schedule: Q01DX009 (ip), vehicle: saline 105 % of control | dose: 12.5 mg/kg/injection, schedule: Q04DX003 (ip), vehicle: saline 93 % of control | dose: 18.75 mg/kg/injection, schedule: Q01DX001 (ip), vehicle: saline 110 % of control | dose: 25.0 mg/kg/injection, schedule: Q04DX003 (ip), vehicle: saline 98 % of control | dose: 32.0 mg/kg/injection, schedule: Q01DX009 (ip), vehicle: saline 90 % of control | dose: 37.5 mg/kg/injection, schedule: Q01DX001 (ip), vehicle: saline 103 % of control | dose: 50.0 mg/kg/injection, schedule: Q04DX003 (ip), vehicle: saline 95 % of control | [2] 119 % of control | [1] 115 % of control

CC1CN1CO (configuration not stated)
inactive: [2] 109 % of control

CCCCC1C(=O)N=C2C=CC=CN2C1=O (configuration not stated)
inactive: dose: 25.0 mg/kg/injection, schedule: Q01DX009 (ip), vehicle: Klucel (hydroxypropylcellulose) (HPC) 102 % of control | dose: 50.0 mg/kg/injection, schedule: Q01DX009 (ip), vehicle: Klucel (hydroxypropylcellulose) (HPC) 100 % of control | [3] 110 % of control | dose: 100.0 mg/kg/injection, schedule: Q04DX003 (ip), vehicle: other 104 % of control | dose: 200.0 mg/kg/injection, schedule: Q04DX003 (ip), vehicle: other 102 % of control

CCCCCSP(=S)(C(C)C)C(C)C
inactive: dose: 100.0 mg/kg/injection, schedule: Q01DX001 (ip), vehicle: saline with Tween-80 95 % of control | dose: 200.0 mg/kg/injection, schedule: Q01DX001 (ip), vehicle: saline with Tween-80 93 % of control | dose: 400.0 mg/kg/injection, schedule: Q01DX001 (ip), vehicle: saline with Tween-80 91 % of control

COC(=O)CCCC(=O)c1[nH]c2ccccc2c1CC(=O)NCc1ccccc1
inactive: dose: 75.0 mg/kg/injection, schedule: Q01DX001 (ip), vehicle: alcohol 97 % of control | dose: 150.0 mg/kg/injection, schedule: Q01DX001 (ip), vehicle: alcohol 93 % of control | dose: 300.0 mg/kg/injection, schedule: Q01DX001 (ip), vehicle: alcohol 92 % of control

CCCCCCCC/C=N/Nc1nnc(N/N=C/CCCCCCCC)c2ccccc12
inactive: dose: 50.0 mg/kg/injection, schedule: Q01DX001 (ip), vehicle: carboxymethylcellulose (CMC) 108 % of control | [4] 114 % of control | dose: 177.0 mg/kg/injection, schedule: Q01DX001 (ip), vehicle: carboxymethylcellulose (CMC) 93 % of control and 111 % of control | [5] 114 % of control | dose: 266.0 mg/kg/injection, schedule: Q01DX001 (ip), vehicle: carboxymethylcellulose (CMC) 119 % of control | [6] 102 % of control | dose: 600.0 mg/kg/injection, schedule: Q01DX001 (ip), vehicle: carboxymethylcellulose (CMC) 101 % of control

CCCCCCCC[Si](Br)(CCCCCCCC)CCCCCCCC
inactive: dose: 75.0 mg/kg/injection, schedule: Q01DX001 (ip), vehicle: acetone 98 % of control | dose: 150.0 mg/kg/injection, schedule: Q01DX001 (ip), vehicle: acetone 93 % of control | dose: 300.0 mg/kg/injection, schedule: Q01DX001 (ip), vehicle: acetone 96 % of control

CCOC=N
inactive: dose: 50.0 mg/kg/injection, schedule: Q01DX001 (ip), vehicle: saline 95 % of control | [7] 95 % of control | [8] 97 % of control | [9] 101 % of control

COC1OC(COC(c2ccccc2)(c2ccccc2)c2ccccc2)C2OC12 (configuration not stated)
inactive: [7] 94 % of control | [8] 103 % of control | [9] 97 % of control

CN(Cc1ccccc1)C(=S)[S-].CN(Cc1ccccc1)C(=S)[S-].[Zn]
inactive: dose: 2.5 mg/kg/injection, schedule: Q01DX009 (ip), vehicle: acetone 100 % of control | dose: 5.0 mg/kg/injection, schedule: Q01DX009 (ip), vehicle: acetone 87 % of control | dose: 5.0 mg/kg/injection, schedule: Q04DX003 (ip), vehicle: saline 95 % of control | dose: 10.0 mg/kg/injection, schedule: Q01DX001 (ip), vehicle: saline 91 % of control | dose: 10.0 mg/kg/injection, schedule: Q01DX009 (ip), vehicle: acetone 89 % of control | dose: 10.0 mg/kg/injection, schedule: Q04DX003 (ip), vehicle: saline 92 % of control | dose: 20.0 mg/kg/injection, schedule: Q01DX001 (ip), vehicle: saline 93 % of control | dose: 20.0 mg/kg/injection, schedule: Q04DX003 (ip), vehicle: saline 89 % of control

CS(=O)c1nsc(S(C)=O)c1C#N (configuration not stated)
inactive: dose: 12.5 mg/kg/injection, schedule: Q04DX002 (ip), vehicle: Klucel (hydroxypropylcellulose) (HPC) 122 % of control

CN(C)C(=S)SCCOc1ccc(Cl)cc1Cl
inactive: dose: 25.0 mg/kg/injection, schedule: Q04DX003 (ip), vehicle: Klucel (hydroxypropylcellulose) (HPC) 95 % of control | dose: 50.0 mg/kg/injection, schedule: Q04DX003 (ip), vehicle: Klucel (hydroxypropylcellulose) (HPC) 98 % of control | dose: 100.0 mg/kg/injection, schedule: Q01DX001 (ip), vehicle: Klucel (hydroxypropylcellulose) (HPC) 96 % of control | [10] 101 % of control | dose: 200.0 mg/kg/injection, schedule: Q01DX001 (ip), vehicle: Klucel (hydroxypropylcellulose) (HPC) 100 % of control | dose: 400.0 mg/kg/injection, schedule: Q01DX001 (ip), vehicle: Klucel (hydroxypropylcellulose) (HPC) 104 % of control

Cc1ccc(C)c(NC(=O)NC(C)C)c1
inactive: [3] 94 % of control | [10] 96 % of control | [11] 94 % of control | [12] 91 % of control | [13] 91 % of control | [14] 89 % of control

Cc1cc(Cl)sc1Cl
inactive: [4] 98 % of control | [5] 93 % of control | [6] 92 % of control

O=C1CCCC/C1=C/c1ccc(Cl)cc1
inactive: [3] 95 % of control | [10] 103 % of control | [11] 98 % of control | [12] 106 % of control | [13] 101 % of control | [14] 105 % of control

CCOP(=O)(OCC)Oc1ccc(S(C)=O)cc1 (configuration not stated)
inactive: dose: 5.0 mg/kg/injection, schedule: Q01DX001 (ip), vehicle: saline 114 % of control

Nc1c(Cl)cc(I)cc1C(=O)O
inactive: dose: 100.0 mg/kg/injection, schedule: Q04DX002 (ip), vehicle: Klucel (hydroxypropylcellulose) (HPC) 94 % of control | dose: 200.0 mg/kg/injection, schedule: Q04DX002 (ip), vehicle: Klucel (hydroxypropylcellulose) (HPC) 102 % of control | dose: 400.0 mg/kg/injection, schedule: Q04DX002 (ip), vehicle: Klucel (hydroxypropylcellulose) (HPC) 102 % of control

CCCCCc1c(C(F)(F)F)[nH]c(=O)[nH]c1=O
inactive: [10] 90 % of control | [12] 101 % of control | [14] 111 % of control
